In patent US6469060B2, “Compositions based on iodopropynyl-and formaldehyde donor compounds and to their use as preservatives” (Air Liquide Sante (International), priority 1997, dated 2002):

Columns and labels:
[1] = Formaldehyde emission of N-formals, Dräger tubes (Example 9); assay type: physicochemical; details: pure N-formal, 1 g overnight in covered 400 ml beaker; for formaldehyde content: Dräger tubes (10 strokes)
Description: For this purpose, 1 g of each of the N-formals was left to stand overnight in a 400 ml beaker covered with para-film. On the following day, the formaldehyde content was then measured using Dräger tubes (10 strokes) as described in Example 1.
The formaldehyde content was 15 ppm (2 strokes 3 ppm) in 3,3′-methylenebis(tetrahydro-2H-1,3-oxazine) and 25 ppm (2 strokes 5 ppm) in Mar 71™. Preparations of 80% by weight of each N-formal and 20% by weight of 1,2-propylene glycol display a clearly different behavior. For example, the addition of 1,2-PLG to 3,3′-methylenebis(tetrahydro-2H-1,3-oxazine) leads to a reduction in the formaldehyde content to form 1.5 to 2.5 ppm (20 strokes) and the addition to Mar 71™ to a reduction to 10 ppm (5 strokes 5 ppm), the formaldehyde content being determined as described above for pure N-formals.

[2] = Stability and compatibility of IPBC with various N-formals, storage at +40° C. in clear glass (Example 2); assay type: physicochemical; details: discoloration and IPBC degradation
Description: The stability and compatibility of IPBC in compositions containing 3% by weight of IPBC, from 80 to 97% by weight of N-formals and […] by weight of 1,2-PLG were determined as a function of the storage time after the solutions had been stored at a temperature of +40° C. in clear glass.
The initially clear, colorless to slightly yellowish solutions became discoloured to varying degrees after storage for three months at a temperature of +40° C. Only the compositions based on IPBC and Mar 71 retained their clear, slightly yellowish appearance.
A summary of the development of the IPBC content, determined by means of HPLC (IPBC starting content 3% by weight) in the compositions investigated as a function of the storage period, is given in Table IV.

Row | SMILES | formaldehyde content, reading at 2 strokes [1] [ppm] | formaldehyde content [1] [ppm] | Compatibility with IPBC [2]
1 | C1COCN(CN2CCCOC2)C1 [3,3′-methylenebis(tetrahydro-2H-1,3-oxazine), reference compound] | 3 | 15 | –
2 | OCCN1CN(CCO)CN(CCO)C1 [Grotan BK TM, 1,3,5-tris(hydroxyethyl)hexahydrotriazine] | – | – | incompatible
3 | CC1CN(CN2COC(C)C2)CO1 (centres unmarked) [Mar 71™, 3,3′-methylenebis(5-methyloxazolidine)] | 5 | 25 | –
